Test results from US12037372B2, “Bioactive peptides derived from snakes” (Universiteit Leiden, priority 2018, dated 2024).
“Also recorded” adds a separate entry of the source.

Experiments:
[1] = tested on: persisters originating from matured, antibiotic-exposed, MRSA biofilms; assay: Activity against persisters; type: cell-based, Staphylococcus aureus
E. faecium (LUH 15122) = assay: Bactericidal activity of peptides (in vitro killing assay); type: cell-based, Enterococcus faecium; details: PBS with 50% plasma, 2 hours
Method: (§1) Enterococcus faecium (LUH 15122), Staphylococcus aureus (LUH 14616), Klebsiella pneumoniae (LUH 15104), Acinetobacter baumannii (RUH 875), Pseudomonas aeruginosa (LUH 15103), Enterobacter cloacae (LUH 15114) and Escherichia coli (LUH 15117) were used. Prior to experimentation the bacteria were taken from a glycerol stock stored at −80° C. and cultured overnight on sheep blood agar plates at 37° C. On the day of experimentation the bacteria were cultured in tryptic soy broth (TSB; Oxoid) for 2.5 hours at 37° C. and 200 rpm to a mid-logarithmic phase. The bacterial suspension was washed in phosphate buffered saline (PBS; pH 7.4), centrifuged for 10 minutes at 3000 rpm, and resuspended in PBS to the desired concentration, as determined by measuring the absorbance at 600 nm.
(§2) As a control the bacteria were also incubated in PBS with either 50% plasma or 50% urine without peptide. The plate was incubated for 2 hours at 37° C. and 200 rpm. After incubation the number of viable bacteria was determined microbiologically by plating the samples and a 10-times dilution series in PBS on diagnostic sensitivity test agar plates (DST; Sigma). The DST plates were incubated overnight at 37° C. Results were expressed as lethal concentration 99.9, or LC99.9, which represents the lowest concentration of peptide that killed 99.9% of the bacteria within 2 hours of incubation.

[2] = tested on: colistin-resistant E. coli (LUH 15117); assay: as above; type: cell-based, Escherichia coli; details: PBS with 50% plasma, 2 hours
Method: as §1, §2

[3] = tested on: 24-hour biofilm of A. baumannii RUH 875; assay: Biofilm breakdown assay; type: cell-based, Acinetobacter baumannii; details: 2-hour treatment
Method: To a polypropylene 96-well flat-bottom plate (Greiner) 50 μl of a bacterial suspension at a concentration of 1×10^7 CFU/ml in BM2 medium (Overhage et al., 2008) were added. A control comprising BM2 medium alone was included. The plate was sealed off with a seal (Costar) and incubated in a humidified environment for 24 hours at 37° C. Thereafter the wells were washed 2 times with PBS. […] The plate was sealed off and incubated for 2 hours at 37° C. and 200 rpm. For analysis the plate was sonicated (Ultrasoonbad BRANSONIC® m1800H-E; Boom b.v.) for 5 minutes to detach the biofilm bacteria. The number of viable bacteria in the sonicates was determined microbiologically by plating the samples and a 10-times dilution series on DST agar plates and incubating these overnight at 37° C. Results were expressed as the LC99.9.

S. aureus LUH 14616 = assay: Resistance development assay; type: cell-based, Staphylococcus aureus; details: 20 passages
Method: (§3) A bacterial culture was prepared and washed as described before. The bacterial culture was diluted to a concentration of 5×10^6 CFU/ml in modified RPMI 1640 comprising 20 mM HEPES, L-glutamine and without sodium bicarbonate (RPMImod; Sigma-Aldrich). In a polypropylene 96-well plate, a two-fold peptide dilution series was made in RPMImod with concentrations ranging from 0.94 μM to 240 μM. […] A negative control of RPMImod without peptide or an antibiotic was included for both dilution series. A contamination control was included containing only RPMImod. To all the wells, except the contamination control wells, 5 μl of the bacterial suspension were added. The plate was sealed and incubated overnight at 37° C. and 200 rpm. After incubation the MIC was determined as the well with the lowest peptide concentration and no bacterial growth. The well with half the MIC was diluted 2.5-fold with RPMImod and transferred to an Eppendorf tube. […] The results were expressed as the fold increase of the MIC compared to the MIC at the first passage.

[4] = tested on: MDR S. aureus (LUH 14616), MRSA; assay: Bactericidal activity of peptides (in vitro killing assay); type: cell-based, Staphylococcus aureus; details: 50% v/v human plasma
Method: as §1, §2

A. Baumannii [5] = assay: Killing of A. baumannii in BM2 medium (control); type: cell-based, Acinetobacter baumannii; details: 0.8 μM peptide
Method: As a control, the ability of these peptides to kill A. baumannii in BM2 medium was assessed.

E. coli = assay: Resistance development assay; type: cell-based, Escherichia coli; details: 20 passages
Method: as §3

[6] = tested on: MDR K. pneumoniae (LUH 15104); assay: Bactericidal activity of peptides (in vitro killing assay); type: cell-based, Klebsiella pneumoniae; details: PBS with 50% plasma, 2 hours
Method: as §1, §2

A. Baumannii [7] = assay: Resistance development assay; type: cell-based, Acinetobacter baumannii; details: 20 passages
Method: as §3

[8] = tested on: MRSA (S. aureus LUH 14616) on ex vivo human skin; assay: Ex vivo skin model; parameters: species or system Staphylococcus aureus; details: 10 μl peptide solution; 1 hour treatment
Text: The donor skin was transported to the LUMC in RPMI 1640 medium (Gibco) supplemented with penicillin/streptomycin (Gibco). Skin samples were washed in PBS and left overnight in RPMI 1640 medium without antibiotics. On the day of the experiment the skin was again washed in PBS, then spread out and punches with a diameter of 8 mm diameter were made with a biopsy punch (Stiefel). The skin samples were dried with a cotton swab. A liquid dam was made with LC Block-Out Resin (Ultradent) on the edge of the skin samples to prevent liquids from dripping off. The liquid dam was solidified by 4 seconds exposure of UV light (Super 1200 led; ECO). The skin samples were placed on grids in a 12-well plate (Costar) filled underneath with medium comprising Ham F12, DMEM and FCS (Gibco). An S. aureus LUH 14616 bacterial suspension was cultured and washed as described before. The skin punches were inoculated with 5 μl of the bacterial suspension (1×10^8 CFU/ml) for one hour at 37° C. and 5% CO2. […] The infected skin was treated for 1 hour at 37° C. and 5% CO2 with 10 μl of the peptide solutions, including a control with 10 μl of PBS alone. Polypropylene tubes were filed with glass beads (1.7 mm diameter) and 1 ml of PBS. The liquid dam was removed from the skin after treatment. […] Results were expressed as the number of viable bacteria (CFU/ml) after treatment.

[9] = tested on: multidrug resistant strain Acinetobacter baumannii RUH875; assay: Bactericidal activity of peptides (in vitro killing assay); type: cell-based; details: for LC99.9, bactericidal activity: MDR A. baumannii, PBS with 50% plasma
Method: as §1, §2

[10] = tested on: lipopolysaccharide from E. coli J5 (LPS); assay: LPS neutralization by peptides (whole blood, IL-12p40 ELISA); type: cell-based, human; details: compared to the LPS control
Method: Heparinized blood collected from healthy human volunteers was diluted five times in RPMI 1640. Next, 195 μl of diluted blood were pipetted in to the wells of a 96-well cell culture plate. In another 96-well polypropylene V-bottom plate, 15 μl of peptide solution with final concentrations of 1 nM to 1000 nM were mixed with 15 μl of 500 ng/ml lipopolysaccharide from E. coli J5 (LPS; Sigma) for 30 minutes at 37° C. and 200 rpm. After incubation the mixtures were diluted five times with 120 μl of RPMI. From the diluted mixtures 5 μl were transferred to the wells of the plate containing the 195 μl of blood. The plate was incubated for 20 hours at 37° C. and 5% CO2. The plate was centrifuged for 5 minutes at 1200 rpm. The supernatants were stored as aliquots at −20° C. until analysis of the cytokine level by ELISA. The IL-12p40 sandwich ELISA from Invitrogen was used. ELISAs were performed according to manufacturer's instructions. Results were expressed as the concentration IL-12p40 in pg/ml.

[11] = tested on: MDR E. cloacae (LUH 15114); assay: Bactericidal activity of peptides (in vitro killing assay); type: cell-based, Enterobacter cloacae; details: PBS with 50% plasma, 2 hours
Method: as §1, §2

[12] = tested on: melanoma cells and other cancer cells; details: Wang et al.; cited from earlier work
melanoma = details: Wang et al.; cited from earlier work
[13] = tested on: MDR P. aeruginosa (LUH 15103); assay: Bactericidal activity of peptides (in vitro killing assay); type: cell-based, Pseudomonas aeruginosa; details: 2-hour treatment, 50% v/v human plasma, median (range)
Method: as §1, §2

[14] = tested on: drug-sensitive strain Escherichia coli LUH15108; assay: Bactericidal activity of peptides (in vitro killing assay), alanine scan; type: cell-based; details: lowest concentration killing 99.9% of an inoculum of about one million bacteria, 50% (v/v) human plasma, within 2 hours
Method: The amino acids of the SP27 peptide were substituted at various positions with Alanine. The substituted peptides were tested on A. baumannii and E. coli bacterial strains for having antimicrobial activity. Furthermore, the substituted peptides were tested for their hemolytic activity as an indicator for their toxicity.

MRSA = details: Cai et al., 2018; cited from earlier work
P. aeruginosa = details: Cai et al., 2018; cited from earlier work

Sequence | LC99.9, bactericidal activity (E. faecium (LUH 15122)) | LC99.9, bactericidal activity [2] | peptide concentration with complete elimination of the biofilms [3] | resistance development: fold increase of the MIC (S. aureus LUH 14616) | reduction of viable bacteria (A. Baumannii [5]) | resistance development: fold increase of the MIC (E. coli) | LC99.9, bactericidal activity [6] | resistance development: fold increase of the MIC (A. Baumannii [7]) | peptide concentration killing 99.9% of the MRSA on ex vivo human skin [8] | LC99.9, bactericidal activity ([9]; 2 hours) | LC99.9, bactericidal activity [11] | also measured
KRFKKFFKKLKNNVKKRVKKFFRKPRVIGVTIPF [SP4] | low micromolar concentrations | submicromolar concentrations | 51.2 µM | remained constant for all 20 passages; also recorded: limited resistance | 2 log | remained constant for all 20 passages | submicromolar concentrations | remained constant for all 20 passages | 102.4 µM | submicromolar concentrations | submicromolar concentrations | activity against persisters [1]: highly effective; LC99.9 ([4]; Table 2, MDR S. aureus, concentration inducing 3 log reduction of viable bacteria): 3.2 µM; LPS neutralization (IL-12p40 production) ([10]; 100 nM peptide): 74%; LPS neutralization (IL-12p40 production) ([10]; 1000 nM peptide): 96%
KRFKKFFRKLKKSVKKRAKEFFKKPRVIGVSIPF [SP5] |  |  |  |  |  |  |  |  |  |  |  | effect on melanoma cells and other cancer cells in vitro [12]: inhibits; LC99.9 (μM) MRSA in 50% plasma ([4]; MDR S. aureus LUH 14616, 2-hour treatment, lowest concentration killing ≥99.9%, median (range)): 25.6 µM; tumor load in melanoma-bearing mice (melanoma): reduces the tumor load; LC99.9 (μM) MDR P. aeruginosa in 50% plasma [13]: 0.4 µM
KRFKKFFRKVKKGVHRYFKKNKFYIAATIPYYG [SP27] | low micromolar concentrations | submicromolar concentrations | 51.2 µM | remained constant for all 20 passages; also recorded: limited resistance | 2 log | remained constant for all 20 passages | submicromolar concentrations | remained constant for all 20 passages | 204.8 µM | submicromolar concentrations | submicromolar concentrations | LC99.9 (μM) E. coli [14]: 1.6 µM; LC99.9 (μM) A. baumannii ([9]; Table 5, 50% (v/v) human plasma, 2 hours): 0.8 µM; LC99.9 (μM) A. baumannii ([9]; Table 6, 50% (v/v) human plasma, 2 hours): 0.8 µM; LC99.9 (μM) A. baumannii ([9]; lowest concentration killing 99.9% of an inoculum of about one million bacteria in 50% (v/v) human plasma within 2 hours, A. baumannii RUH875): 0.8 µM; LC99.9 (μM) A. baumannii ([9]; lowest concentration killing 99.9% of an inoculum of about one million bacteria, 50% (v/v) human plasma, within 2 hours, A. baumannii RUH875): 0.8 µM; LC99.9 (μM) A. baumannii ([9]; lowest concentration of the peptide that kills 99.9% of an inoculum of about one million bacteria in the presence of 50% (v/v) human plasma within 2 hours, Acinetobacter baumannii RUH875): 0.8 µM
KRFQNFFRELEKKFREFFRVYRITIGATIRF [SP16] |  |  |  |  |  |  |  |  |  |  |  | bactericidal effect against MRSA (MRSA): no bactericidal effect; bactericidal effect against P. aeruginosa (P. aeruginosa): no bactericidal effect
